We go through 16 molecules from patent US4603145A, “Antiatherosclerotic diphenyl alkanamides” (American Cyanamid Company, priority 1983, dated 1986).

The target in this assay is T1, fatty acyl CoA:cholesterol acyl transferase (ACAT) (Rattus norvegicus, UniProt O70536).
T1 construct: The supernatant, containing the microsomal fraction, served as the source of the cholesterol-esterifying enzyme; from tissue; host or cells: rat adrenals (supernatant of homogenate, 1,000 x g, containing the microsomal fraction)
T1 sequence (O70536 1-545): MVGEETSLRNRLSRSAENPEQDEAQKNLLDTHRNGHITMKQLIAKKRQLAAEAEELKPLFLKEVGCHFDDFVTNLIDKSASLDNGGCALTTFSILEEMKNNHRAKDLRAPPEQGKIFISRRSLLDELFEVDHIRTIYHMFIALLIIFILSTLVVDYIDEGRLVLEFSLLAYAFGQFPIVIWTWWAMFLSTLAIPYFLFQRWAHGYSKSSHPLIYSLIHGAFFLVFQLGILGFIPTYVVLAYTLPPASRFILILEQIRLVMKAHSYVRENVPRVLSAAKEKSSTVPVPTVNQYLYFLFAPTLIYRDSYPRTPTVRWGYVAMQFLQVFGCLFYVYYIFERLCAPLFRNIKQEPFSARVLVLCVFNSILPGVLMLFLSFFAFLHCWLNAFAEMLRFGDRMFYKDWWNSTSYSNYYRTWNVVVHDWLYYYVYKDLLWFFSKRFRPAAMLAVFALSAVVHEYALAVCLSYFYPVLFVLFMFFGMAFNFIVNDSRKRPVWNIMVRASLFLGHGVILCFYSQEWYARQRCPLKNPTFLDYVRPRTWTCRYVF
As to the kind of experiment: Inhibition of enzymatic esterification of cholesterol (ACAT), rat adrenal microsomal supernatant. Type of assay: biochemical. The following applies: final concentration of the test compound 5.2 μg./ml., 14C-oleoyl CoA, 37° C., read-out: % INHIBITION (percent inhibition of the ACAT enzyme compared to control values). Here is the method: The compounds of the present invention were tested for their ability to inhibit the enzymatic esterification of cholesterol according to the following procedure:
Rat adrenals were homogenized in 0.2M monobasic potassium phosphate buffer, pH 7.4, and centrifuged at 1,000 times gravity for 15 minutes at 5° C. The supernatant, containing the microsomal fraction, served as the source of the cholesterol-esterifying enzyme, fatty acyl CoA:cholesterol acyl transferase (ACAT). A mixture comprising 50 parts of adrenal supernatant, 10 parts of albumin (BSA) (50 mg./ml.), 20 parts of oleoyl CoA (^14 C-0.4 μCi), 3 parts of test compound, and 500 parts of buffer was pre-incubated at 37° C. for 10 minutes. After treatment with 20 parts of oleoyl CoA (^14 C-0.4 μCi), the mixture was incubated at 37° C. for 10 minutes. A control mixture, omitting the test compound, was prepared and treated in the same manner. The lipids from the incubation mixture were extracted into an organic solvent and separated by thin-layer chromatography. The cholesterol ester fraction was counted in a scintillation counter. This procedure is a modification of that described by Hashimoto, et al., Life Scie., 12 (Part II), 1-12 (1973).
The results of this test on representative compounds of this invention appear in Table I. The final concentration of the test compound was 5.2 μg./ml., and effectiveness of the compound is expressed as percent inhibition of the ACAT enzyme compared to control values.

With `NC(=O)CC(c1ccc(Cl)cc1)c1ccc(Cl)cc1` [3,3-Bis(p-chlorophenyl)propionamide], the inhibition at 5.2 µg/mL worked out at 31%. Consider `CCOC(=O)CNC(=O)C=C(c1ccc(Cl)cc1)c1ccc(Cl)cc1` [Ethyl N-[3,3-bis(p-chlorophenyl)acryloyl]glycinate], for which the inhibition at 5.2 µg/mL stood at 85%. With `CCCCN(CCCC)C(=O)CC(c1ccc(Cl)cc1)c1ccc(Cl)cc1` [N,N--Di-(n-butyl)-3,3-bis(p-chlorophenyl)propionamide] the figure was 48%; with `CCCCN(CCCC)C(=O)CC(c1ccc(OC)cc1)c1ccc(OC)cc1` [N,N--Di-(n-butyl)-3,3-bis(p-methoxyphenyl)propionamide], 95%. `CCCCN(CCCC)C(=O)CC(c1ccc(C)cc1)c1ccc(C)cc1` [N,N--Di-(n-butyl)-3,3-bis(p-tolyl)propionamide]: the inhibition at 5.2 µg/mL turned out to be 94%. Turning to `O=C(CC(c1ccc(Cl)cc1)c1ccc(Cl)cc1)N(Cc1ccccc1)Cc1ccccc1` [N,N--Dibenzyl-3,3-bis(p-chlorophenyl)propionamide], the inhibition at 5.2 µg/mL was 93%.

For the molecule `COc1ccc(C(CC(=O)N(Cc2ccccc2)Cc2ccccc2)c2ccc(OC)cc2)cc1` [N,N--Dibenzyl-3,3-bis(p-methoxyphenyl)propionamide], the inhibition at 5.2 µg/mL came to 87%. Consider `Cc1ccc(C(CC(=O)N(Cc2ccccc2)Cc2ccccc2)c2ccc(C)cc2)cc1` [N,N--Dibenzyl-3,3-bis(p-tolyl)propionamide], for which the inhibition at 5.2 µg/mL turned out to be 68%.

Turning to `CN(C)C(=O)CC(c1ccc(Cl)cc1)c1ccc(Cl)cc1` [N,N--Dimethyl-3,3-bis(p-chlorophenyl)propionamide], the inhibition at 5.2 µg/mL is 68%. For `O=C(CC(c1ccc(Cl)cc1)c1ccc(Cl)cc1)NC12CC3CC(CC(C3)C1)C2` [N--(1-Adamantyl)-3,3-bis(p-chlorophenyl)propionamide] the value was 97%; for `COc1ccc(C(CC(=O)NC23CC4CC(CC(C4)C2)C3)c2ccc(OC)cc2)cc1` [N--(1-Adamantyl)-3,3-bis(p-methoxyphenyl)propionamide], 89%. For `Cc1ccc(C(CC(=O)NC23CC4CC(CC(C4)C2)C3)c2ccc(C)cc2)cc1` [N--(1-Adamantyl)-3,3-bis(p-tolyl)propionamide] the value was 76%; for `CCCCNC(=O)CC(c1ccc(Cl)cc1)c1ccc(Cl)cc1` [N--(n-Butyl)-3,3-bis(p-chlorophenyl)propionamide], 92%. For `O=C(CC(c1ccc(Cl)cc1)c1ccc(Cl)cc1)NCc1ccccc1` [N--Benzyl-3,3-bis(p-chlorophenyl)propionamide] the value was 35%; for `CCCCN(Cc1ccccc1)C(=O)CC(c1ccc(Cl)cc1)c1ccc(Cl)cc1` [N--Benzyl-N--(n-butyl)-3,3-bis(p-chlorophenyl)propionamide], 45%; for `COc1ccc(C(CC(=O)NCCc2ccc(OC)c(OC)c2)c2ccc(OC)cc2)cc1` [N--[2-(3,4-Dimethoxyphenyl)ethyl]-3,3-bis(p-methoxyphenyl)propionamide], 78%.

The inhibition is the percentage by which the read-out fell short of the control.
